Data from US10265294B2, “Compositions and methods for treating epithelial cancer” (YALE UNIVERSITY, priority 2016, dated 2019).

Assays:
Format in all cases: cell-based, human
[1] = test system: OCC2 (CD44-/MyD88- ovarian cancer cells); experiment: IC50 against chemosensitive ovarian cancer cells OCC2; details: read-out: IC50 (percentage of viable cells)
Experimental: CD44+/MyD88+ ovarian cancer stem cell clones (OCSC1 and OCSC2) and CD44−/MyD88− ovarian cancer cells (OCC1 and OCC2) were isolated from either tumor tissue or ascites obtained from patients diagnosed with stage III/IV serous ovarian cancer and propagated (Alvero, et al., 2009, Cell Cycle 8:158-166; Chefetz, et al., 2013, Cell Cycle 12:511-521). The epithelial nature of the isolated cells was determined by immunostaining for Ck18. Purity of the cultures based on CD44 expression by flow cytometry and chemoresistance were routinely tested. […]
(§1) Effect of each compound on cell morphology, growth, and viability was assessed using a kinetic live cell imaging system (Incucyte, Essen Bioscience). Proliferation was calculated as previously described (Alvero, et al., 2011, Mol. Cancer Ther. 10:1385-1393) using metrics from either confluence or fluorescent count from nuclear-restricted RFP or GFP. Cell death was quantified; similarly CELLTOX® Green Cytotoxicity Assay (Promega, Madison, Wis.). IC50 was calculated as described using GraphPad Prism (GraphPad Software Inc., LaJolla, Calif.).
Once the efficacy of TRX-E-002-1 against chemoresistant OCSC was established, its activity against two clones of chemosensitive ovarian cancer cells (OCC1 and OCC2) was determined.

[2] = test system: OCSCs (CD44+/MyD88+ ovarian cancer stem cells); experiment: OCSC growth, morphology, RFP+ cell count and Celltox cell death (kinetic live cell imaging)
Experimental: (§2) CD44+/MyD88+ ovarian cancer stem cell clones (OCSC1 and OCSC2) and CD44−/MyD88− ovarian cancer cells (OCC1 and OCC2) were isolated from either tumor tissue or ascites obtained from patients diagnosed with stage III/IV serous ovarian cancer and propagated (Alvero, et al., 2009, Cell Cycle 8:158-166; Chefetz, et al., 2013, Cell Cycle 12:511-521). The epithelial nature of the isolated cells was determined by immunostaining for Ck18. Purity of the cultures based on CD44 expression by flow cytometry and chemoresistance were routinely tested. Stable expression of nuclear-restricted red fluorescent (in OCSCs) or green fluorescent proteins (in OCCs) was performed by transduction using NUCLIGHT® Red or Green Lentivirus Reagent (Essen Bioscience, Ann Arbor, Mich.). Spheroids were formed from OCSCs by culturing in ultra-low attachment multi-well plates (Corning, Inc., Corning, N.Y.).
as §1
In vitro, conventional chemotherapeutic drugs had negligible effect on OCSC growth even in the μM range (FIG. 1B).
TRX-E-002 exists as a racemic mixture comprised of two enantiomers, enantiomer A (TRX-E-002-1) and enantiomer B (TRX-E-002-2). Thus, the enantiomers were separated and assessed separately. To distinguish between an analog's cytostatic or cytotoxic activity, OCSC clones that are stably transfected with nuclear-restricted RFP were used, which allows an accurate quantification of the number of cells and can be multiplexed with CELLTOX® assay to concomitantly measure the number of dead cells.

OCSC2 spheroids = experiment: 3D spheroid integrity by kinetic imaging; details: compared to the control; dose-dependent
Experimental: as §2
Spheroids represent a 3D in vitro tumor model of multiple cell layers that mimic tumors in vivo. In ovarian cancer, spheroid cultures not only mimic ovarian solid tumors, but also ovarian cancer cells found in malignant ascites. Spheroid cultures allow one to test the capacity of compounds to diffuse through multiple layers of cells and induce cell death. It further allows one to test the efficacy of treatment against the mesenchymal cancer subtype. […]

[3] = test system: chemoresistant ovarian cancer stem cells; experiment: OCSC growth and morphology with TRX-E-002-1, AICAR or the combination
Experimental: The effect of each compound on cell growth was assessed using a kinetic live cell imagine system (Incucyte, Essen Bioscience). Proliferation was determined based on either confluence or fluorescent count from nuclear-restricted RFP or GFP. The IC50 values were calculated using GraphPad Prism (GraphPad Software Inc., LaJolla, Calif.). […]

COc1cc(C2COc3c(ccc(O)c3C)C2c2ccc(O)cc2)cc(OC)c1O (single isomer, unassigned) [TRX-E-002-1]
IC50 [1]: 27 nM
number of nuclear RFP+ cells ([2]; RFP OCSC clones, TRX-E-002-1 beginning at the 0.245 μM dose, TRX-E-002-2 except for the very high dose of 10 μM): significant decrease
number of Celltox-positive cells ([2]; beginning at the 0.245 μM dose): concomitant increase
amount of intact spheroids (OCSC2 spheroids): significantly decreased
cell morphology / apoptotic cells ([3]; 48 hours, AICAR at 0.2 mM): only minimal effect
effect on cell growth ([3]; TRX-E-002-1 25 ng/ml, mono therapies or combination): minimal effect
